In patent US20240376099A1, “COMPOUNDS AND COMPOSITIONS AS INHIBITORS OF ENDOSOMAL TOLL-LIKE RECEPTORS” (Novartis AG, priority 2016, published 2024):

molecular target: T1, TLR7 (Homo sapiens, UniProt Q9NYK1); test: huPBMC TLR7 Antagonist IFNα Assay; type: cell-based; conditions: human PBMCs stimulated with ssRNA40 10 μg/mL (DOTAP), 14-16 hrs; IFNα2b AlphaLISA read-out
T1 construct: Fresh blood was collected from normal human donors; endogenous in cells; host or cells: human PBMCs from fresh donor blood
T1 sequence (Q9NYK1 27-1049): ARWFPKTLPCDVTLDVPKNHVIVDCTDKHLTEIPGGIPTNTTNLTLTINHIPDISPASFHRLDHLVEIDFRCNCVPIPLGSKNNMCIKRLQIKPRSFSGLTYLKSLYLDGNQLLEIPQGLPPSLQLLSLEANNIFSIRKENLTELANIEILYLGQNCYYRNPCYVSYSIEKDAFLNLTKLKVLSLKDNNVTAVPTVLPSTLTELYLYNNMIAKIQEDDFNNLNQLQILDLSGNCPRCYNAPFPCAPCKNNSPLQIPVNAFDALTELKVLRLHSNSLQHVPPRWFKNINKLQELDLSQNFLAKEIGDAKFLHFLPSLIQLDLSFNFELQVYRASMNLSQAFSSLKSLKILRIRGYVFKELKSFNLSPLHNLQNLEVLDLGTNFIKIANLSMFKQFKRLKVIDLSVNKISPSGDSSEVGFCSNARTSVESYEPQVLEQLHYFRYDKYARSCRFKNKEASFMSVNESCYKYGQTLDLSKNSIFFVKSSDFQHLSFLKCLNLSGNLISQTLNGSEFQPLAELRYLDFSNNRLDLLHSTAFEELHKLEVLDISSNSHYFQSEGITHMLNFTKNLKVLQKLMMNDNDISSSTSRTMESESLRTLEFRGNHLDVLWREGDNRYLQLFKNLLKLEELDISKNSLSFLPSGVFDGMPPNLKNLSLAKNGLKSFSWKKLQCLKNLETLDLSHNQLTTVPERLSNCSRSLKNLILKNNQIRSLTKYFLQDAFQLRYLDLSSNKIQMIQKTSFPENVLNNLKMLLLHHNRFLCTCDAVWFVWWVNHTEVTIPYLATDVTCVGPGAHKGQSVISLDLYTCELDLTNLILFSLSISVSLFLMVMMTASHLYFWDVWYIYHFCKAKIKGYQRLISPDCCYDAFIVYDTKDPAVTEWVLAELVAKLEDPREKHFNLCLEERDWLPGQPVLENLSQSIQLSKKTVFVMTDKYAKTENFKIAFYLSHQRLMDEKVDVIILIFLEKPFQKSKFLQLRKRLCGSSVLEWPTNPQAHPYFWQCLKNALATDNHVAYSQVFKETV
Method in brief: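 Human PBMCs from fresh donor blood (150,000 cells/well) stimulated 14–16 h at 37 °C with DOTAP-complexed ssRNA40 (final 1 μg/ml for TLR8, 10 μg/mL for TLR7) or ODN2216 (final 0.3 μM, TLR9), 0.25% DMSO, ten-point 1/3 compound dilutions. Supernatant IL-6 read by HTRF (TLR8); IFNα by IFNα2b AlphaLISA (TLR7/TLR9).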

Row | Structure (SMILES) | IC50 [nM]
1 | COCCNC12CCC(Cn3nc(C)c4c3CCN(c3cc(C)nc5c3cnn5C)C4)(CC1)OC2 [compound 102, 1-((5-(1,6-dimethyl-1H-pyrazolo[3,4-b]pyridin-4-yl)-3-methyl-4,5,6,7-tetrahydro-1H-pyrazolo[4,3-c]pyridin-1-yl)methyl)-N-(2-methoxyethyl)-2-oxabicyclo[2.2.2]octan-4-amine] | 22
2 | Cc1nc(N2CCc3c(c(C)nn3CC34CCC(N5CCCCC5)(CC3)CC4)C2)c2cnn(C)c2n1 [compound 39, 1,6-dimethyl-4-(3-methyl-1-((4-(piperidin-1-yl)bicyclo[2.2.2]octan-1-yl)methyl)-6,7-dihydro-1H-pyrazolo[4,3-c]pyridin-5(4H)-yl)-1H-pyrazolo[3,4-c]pyrimidine] | 60
3 | Cc1cc(N2CCc3c(c(C)nn3CC34CCC(N5CCOC[C@@H]5C)(CC3)CC4)C2)c2cnn(C)c2n1 [compound 128, (S)-4-(4-((5-(1,6-dimethyl-1H-pyrazolo[3,4-b]pyridin-4-yl)-3-methyl-4,5,6,7-tetrahydro-1H-pyrazolo[4,3-c]pyridin-1-yl)methyl)bicyclo[2.2.2]octan-1-yl)-3-methylmorpholine] | 6
4 | Cc1nc(N2CCc3c(c(C)nn3CC34CCC(N)(CC3)CC4)C2)c2c(n1)c(C)nn2C [Compound No. 26, 4-((3-methyl-5-(1,3,5-trimethyl-1H-pyrazolo[4,3-d]pyrimidin-7-yl)-4,5,6,7-tetrahydro-1H-pyrazolo[4,3-c]pyridin-1-yl)methyl)bicyclo[2.2.2]octan-1-amine] | 644
5 | Cc1nc(N2CCc3c(c(C)nn3CC34CCC(N5CCOCC5)(CC3)CC4)C2)c2cnn(C)c2n1 [compound 19, 4-(4-((5-(1,6-dimethyl-1H-pyrazolo[3,4-d]pyrimidin-4-yl)-3-methyl-4,5,6,7-tetrahydro-1H-pyrazolo[4,3-c]pyridin-1-yl)methyl)bicyclo[2.2.2]octan-1-yl)morpholine] | 55
6 | Cc1cc(N2CCc3c(c(C)nn3CC34CCC(NC(=O)CN5CC(O)C5)(CC3)CC4)C2)c2cnn(C)c2n1 [Compound No. 136, N-(4-((5-(1,6-dimethyl-1H-pyrazolo[3,4-b]pyridin-4-yl)-3-methyl-4,5,6,7-tetrahydro-1H-pyrazolo[4,3-c]pyridin-1-yl)methyl)bicyclo[2.2.2]octan-1-yl)-2-(3-hydroxyazetidin-1-yl)acetamide] | 6
7 | [2H]C([2H])([2H])N(C([2H])([2H])[2H])C12CCC(Cn3nc(C)c4c3CCN(c3nc(C)nc5c(C)nn(C)c35)C4)(CC1)CC2 [compound 40, 4-((3-methyl-5-(1,3,5-trimethyl-1H-pyrazolo[4,3-d]pyrimidin-7-yl)-4,5,6,7-tetrahydro-1H-pyrazolo[4,3-c]pyridin-1-yl)methyl)-N,N-bis(trideuteromethyl)bicyclo[2.2.2]octan-1-amine] | 70
8 | Cc1cc(N2CCc3c(c(C)nn3CC34CCC(N5CCN(C)C(=O)C5)(CC3)CC4)C2)c2cnn(C)c2n1 [Compound No. 104, 4-(4-((5-(1,6-dimethyl-1H-pyrazolo[3,4-b]pyridin-4-yl)-3-methyl-4,5,6,7-tetrahydro-1H-pyrazolo[4,3-c]pyridin-1-yl)methyl)bicyclo[2.2.2]octan-1-yl)-1-methylpiperazin-2-one] | 61
9 | Cc1cc(N2CCc3c(c(C)nn3CC34CCC(NC(=O)C5CNC5)(CC3)CC4)C2)c2cnn(C)c2n1 [compound 131, N-(4-((5-(1,6-dimethyl-1H-pyrazolo[3,4-b]pyridin-4-yl)-3-methyl-4,5,6,7-tetrahydro-1H-pyrazolo[4,3-c]pyridin-1-yl)methyl)bicyclo[2.2.2]octan-1-yl)azetidine-3-carboxamide] | 3
10 | Cc1nn(CC23CCC(N)(CC2)CC3)c2c1CN(c1ccnc3[nH]ncc13)CC2 [compound 41, 4-((3-methyl-5-(1H-pyrazolo[3,4-b]pyridin-4-yl)-4,5,6,7-tetrahydro-1H-pyrazolo[4,3-c]pyridin-1-yl)methyl)bicyclo[2.2.2]octan-1-amine] | 6
11 | CNCCC(=O)NC12CCC(Cn3nc(C)c4c3CCN(c3cc(C)nc5c3cnn5C)C4)(CC1)CC2 [compound 142, N-(4-((5-(1,6-dimethyl-1H-pyrazolo[3,4-b]pyridin-4-yl)-3-methyl-4,5,6,7-tetrahydro-1H-pyrazolo[4,3-c]pyridin-1-yl)methyl)bicyclo[2.2.2]octan-1-yl)-3-(methylamino)propanamide] | 47
12 | Cc1nc(N2CCc3c(c(C)nn3CC34CCC(NC(=O)[C@@H]5COCCN5)(CC3)CC4)C2)c2c(n1)c(C)nn2C [compound 33, (S)-N-(4-((3-methyl-5-(1,3,5-trimethyl-1H-pyrazolo[4,3-d]pyrimidin-7-yl)-4,5,6,7-tetrahydro-1H-pyrazolo[4,3-c]pyridin-1-yl)methyl)bicyclo[2.2.2]octan-1-yl)morpholine-3-carboxamide] | 55
13 | CCNCC(=O)NC12CCC(Cn3nc(C)c4c3CCN(c3cc(C)nc5cn[nH]c35)C4)(CC1)CC2 [compound 124, 2-(ethylamino)-N-(4-((3-methyl-5-(5-methyl-1H-pyrazolo[4,3-b]pyridin-7-yl)-4,5,6,7-tetrahydro-1H-pyrazolo[4,3-c]pyridin-1-yl)methyl)bicyclo[2.2.2]octan-1-yl)acetamide] | 1040
14 | Cc1nc(N2CCc3c(c(C)nn3CC34CCC(N5CCOCC5)(CC3)CC4)C2)c2c(C)noc2n1 [compound 37, 3,6-dimethyl-4-(3-methyl-1-((4-morpholinobicyclo[2.2.2]octan-1-yl)methyl)-6,7-dihydro-1H-pyrazolo[4,3-c]pyridin-5(4H)-yl)isoxazolo[5,4-d]pyrimidine] | 159
15 | Cc1c2c(nn1CC13CCC(N)(CC1)CC3)CCN(c1ccnc3[nH]ncc13)C2 [compound 42, 4-((3-methyl-5-(1H-pyrazolo[3,4-b]pyridin-4-yl)-4,5,6,7-tetrahydro-2H-pyrazolo[4,3-c]pyridin-2-yl)methyl)bicyclo[2.2.2]octan-1-amine] | 17
16 | Cc1cc(N2CCc3c(c(C)nn3CC34CCC(N5CCO[C@@H](C)C5)(CC3)CC4)C2)c2cnn(C)c2n1 [compound 109, (S)-4-(4-((5-(1,6-dimethyl-1H-pyrazolo[3,4-b]pyridin-4-yl)-3-methyl-4,5,6,7-tetrahydro-1H-pyrazolo[4,3-c]pyridin-1-yl)methyl)bicyclo[2.2.2]octan-1-yl)-2-methylmorpholine] | 12
